Values quoted from earlier work as cited in patent publication US7759361B2, “Azabicyclooctan-3-one derivatives and use thereof” (Aprea AB, priority 2004, dated 2010).

Tested on: cells carrying mutant p53
Details: disclosed in WO 02/24692

For O=C1C2CCN(CC2)C1(CO)CO [PRIMA-1, 2,2-bis(hydroxymethyl)-1-azabicyclo[2.2.2]octan-3-one], the induction of apoptosis is listed as “able to induce apoptosis”.
